Patent US20220016060A1, “USE OF SODIUM 2-(3-PENTYLPHENYL)ACETATE IN THE TREATMENT OF ALSTRÖM SYNDROME” (LIMINAL BIOSCIENCES LIMITED, priority 2018, published 2022)
Where “and” joins values, the source holds several entries; their conditions need not be identical. Equal values may be shown once. Entries after “also recorded” stand apart in the source; their conditions may differ.

Assays:
Type in all cases: in vivo, human
[1] = tested on: ALMS patients; experiment: Enhanced Liver Fibrosis (ELF) blood test; design: increase in ELF test score from baseline / Change from Baseline ELF Test, Median / ELF Test score: scale not given here; details: individual subjects, 800 mg daily oral
Method: The study was a Phase 2, single-centre, single-arm, open-label study of sodium 2-(3-pentylphenyl)acetate administered at a total daily oral dose of 800 mg for up to 72 weeks in subjects with ALMS was undertaken. The initial duration of the study was 24 weeks, and subjects were offered to enrol into an extension phase of 36 or 48 weeks. The schedule of study procedures for the enrolment, intervention, and assessments for participants is outlined in FIG. 1. Sodium 2-(3-pentylphenyl)acetate was formulated in soft gelatine capsules containing 200 mg of Sodium 2-(3-pentylphenyl)acetate (amorphous powder) per capsule, polyethylene glycol 400, National Formulary (NF), hydrochloric acid (for pH adjustment), and water. The effect of sodium 2-(3-pentylphenyl)acetate on liver histology in ALMS patients was also assessed using the Enhanced Liver Fibrosis (ELF™) blood test. The ELF™ Blood Test combines three serum biomarkers (Hyaluronic acid (HA), Procollagen III amino terminal peptide (PIIINP), and Tissue inhibitor of metalloproteinase 1 (TIMP-1)) which, when correlated, are able to identify a quantifiable level of liver fibrosis.

[2] = tested on: ALMS patients; experiment: C-peptide; details: for Change from Baseline C-Peptide, Mean / Change from Baseline C-Peptide, Median: 800 mg daily oral
Method: The study was a Phase 2, single-centre, single-arm, open-label study of sodium 2-(3-pentylphenyl)acetate administered at a total daily oral dose of 800 mg for up to 72 weeks in subjects with ALMS was undertaken. The initial duration of the study was 24 weeks, and subjects were offered to enrol into an extension phase of 36 or 48 weeks. The schedule of study procedures for the enrolment, intervention, and assessments for participants is outlined in FIG. 1. Sodium 2-(3-pentylphenyl)acetate was formulated in soft gelatine capsules containing 200 mg of Sodium 2-(3-pentylphenyl)acetate (amorphous powder) per capsule, polyethylene glycol 400, National Formulary (NF), hydrochloric acid (for pH adjustment), and water.

[3] = tested on: ALMS patients; experiment: Cardiac MRI of left ventricular function (LVESV, LVEDV); details: for Change from Baseline LVEDV, Mean (SD) / Change from Baseline LVEDV, Median / Change from Baseline LVESV, Mean (SD) / Change from Baseline LVESV, Median: 800 mg daily oral
Method: The study was a Phase 2, single-centre, single-arm, open-label study of sodium 2-(3-pentylphenyl)acetate administered at a total daily oral dose of 800 mg for up to 72 weeks in subjects with ALMS was undertaken. The initial duration of the study was 24 weeks, and subjects were offered to enrol into an extension phase of 36 or 48 weeks. The schedule of study procedures for the enrolment, intervention, and assessments for participants is outlined in FIG. 1.
Sodium 2-(3-pentylphenyl)acetate was formulated in soft gelatine capsules containing 200 mg of Sodium 2-(3-pentylphenyl)acetate (amorphous powder) per capsule, polyethylene glycol 400, National Formulary (NF), hydrochloric acid (for pH adjustment), and water.
The effect of sodium 2-(3-pentylphenyl)acetate on heart histology in ALMS patients was assessed by measuring left ventricular function (LVF). LVF measurements permit to quantify how well the left ventricle is able to pump blood through the body with each heartbeat, and is also a prognostic factor in acute myocardial infarction.

With CCCCCc1cccc(CC(=O)[O-])c1.[Na+] [sodium 2-(3-pentylphenyl)acetate] the “Severity of Liver Fibrosis Based on ELF Test” value (“Severity” below) ([1]; EP Week 24 (Week 48)) was “Sev (severe fibrosis ≥ 9.8); also recorded: Mod (moderate fibrosis ≥ 7.7 to < 9.8); also recorded: NTM (None to mild fibrosis < 7.7)”, the “ELF Test score” value ([1]; EP Week 36 (Week 60)) was 10.28 and 8.42 and 7.16 and 9.90 and 8.50 and 10.79 and 8.64 and 8.74 and the “Severity” value ([1]; EP Week 36 (Week 60)) was “Sev (severe fibrosis ≥ 9.8); also recorded: Mod (moderate fibrosis ≥ 7.7 to < 9.8); also recorded: NTM (None to mild fibrosis < 7.7)”. The “ELF Test score” value ([1]; Week 12) was 8.50 and 8.63 and 9.75 and 7.98 and 7.93 and 7.33 and 10.05 and 9.71 and 10.96 and 8.51 and 11.25 and 9.05, the “Severity” value ([1]; Week 12) was “Mod (moderate fibrosis ≥ 7.7 to < 9.8); also recorded: NTM (None to mild fibrosis < 7.7); also recorded: Sev (severe fibrosis ≥ 9.8)” and the “ELF Test score” value ([1]; Week 24) was 9.31 and 9.02 and 8.60 and 7.14 and 7.26 and 7.31 and 10.39 and 8.41 (2×) and 10.69 and 8.47 and 11.29. The “Severity” value ([1]; Week 24) was “Mod (moderate fibrosis ≥ 7.7 to < 9.8); also recorded: NTM (None to mild fibrosis < 7.7); also recorded: Sev (severe fibrosis ≥ 9.8)”, the “Change from Baseline C-Peptide, Mean” value ([2]; EP Week 12 (Week 36), N=10) was -350.90 pmol/L and the “Change from Baseline C-Peptide, Median” value ([2]; EP Week 12 (Week 36), N=10) was 6.00 pmol/L. For the same compound, the “Change from Baseline C-Peptide, Mean” value ([2]; EP Week 24 (Week 48), N=9) was -286.67 pmol/L, the “Change from Baseline C-Peptide, Median” value ([2]; EP Week 24 (Week 48), N=9) was -40.00 pmol/L and the “Change from Baseline C-Peptide, Mean” value ([2]; EP Week 36 (Week 60), N=8) was 219.88 pmol/L. The “Change from Baseline C-Peptide, Median” value ([2]; EP Week 36 (Week 60), N=8) was -31.00 pmol/L, the “Change from Baseline C-Peptide, Mean” value ([2]; EP Week 48 (Week 72), N=3) was 810.00 pmol/L and the “Change from Baseline C-Peptide, Median” value ([2]; EP Week 48 (Week 72), N=3) was 737.00 pmol/L. The increase in C-peptide from baseline ([2]; Subject 826-001-001, 204-day break in treatment) was 817 pmol/L, the “increase in C-peptide from baseline” value ([2]; Subject 826-001-004, 30-day break in treatment) was 1.757e+06 pmol/L and the increase in C-peptide from baseline ([2]; Subject 826-001-005, 39-day break in treatment) was 737 pmol/L. The increase in C-peptide from baseline ([2]; Subject 826-001-007, 32-day break in treatment) was 3580 pmol/L, the “Change from Baseline C-Peptide, Mean” value ([2]; Week 12, N=12) was 473.50 pmol/L and the “Change from Baseline C-Peptide, Median” value ([2]; Week 12, N=12) was 102.50 pmol/L. For the same compound, the “Change from Baseline C-Peptide, Mean” value ([2]; Week 24, N=12) was 41.25 pmol/L, the “Change from Baseline C-Peptide, Median” value ([2]; Week 24, N=12) was 84.50 pmol/L and the “subjects in whom LVESV increased or did not change from baseline” value ([3]; 9/12 subjects) was 75.0%. The “subjects in whom LVEDV increased from baseline” value ([3]; 10/12 subjects) was 83.3%, the “Change from Baseline LVEDV, Mean (SD)” value ([3]; EP Week 36 (Week 60), N=4) was 7.75 (3.948) mL and the “Change from Baseline LVEDV, Median” value ([3]; EP Week 36 (Week 60), N=4) was 8.50 mL. The “Change from Baseline LVESV, Mean (SD)” value ([3]; EP Week 36 (Week 60), N=4) was 3.75 (2.500) mL, the “Change from Baseline LVESV, Median” value ([3]; EP Week 36 (Week 60), N=4) was 3.50 mL and the “Change from Baseline LVEDV, Mean (SD)” value ([3]; Week 24, N=10) was 4.40 (16.574) mL. The “Change from Baseline LVEDV, Median” value ([3]; Week 24, N=10) was 5.00 mL, the “Change from Baseline LVESV, Mean (SD)” value ([3]; Week 24, N=10) was 0.70 (9.650) mL and the “Change from Baseline LVESV, Median” value ([3]; Week 24, N=10) was 3.00 mL. For the same compound, the “change in LVESV from baseline” value ([3]; after 60 weeks of treatment) was “strong trend toward an increase”, the “mean increase in LVEDV from baseline” value ([3]; after 60 weeks of treatment, p=0.0294) was 7.75 mL and the “LVESV relative to normal range” value ([3]; subject 826-001-015) was “Normalization of LVESV after treatment”. The “LVEDV and LVESV relative to normal range” value ([3]; subjects 826-001-002 and 826-001-004, below normal at baseline) was “within the normal range after the treatment period”.
